Here are results for 21 compounds from patent US20240101544A1, “INHIBITORS OF QPCTL AND QPCT” (priority 2022, published 2024).

The target in assay [1] is T1, QPCTL (Homo sapiens (Human), UniProt Q9NXS2). Briefly: QPCTL Enzymatic Activity Assay (coupled-enzyme fluorescent assay, H-Gln-AMC substrate). The assay is classed as biochemical. Particulars: recombinant truncated human QPCTL 10-12 nM, 10 μM H-Gln-AMC; read-out: QPCTL Inhibition IC50. Here is the method: Protein expression was induced when the bacterial culture OD600 was approximately 0.7 using 1 mM IPTG and the cells incubated at 20° C. for approximately 16 hours. The QPCTL was purified using nickel column purification, digested by TEV, followed by a second nickel column purification. The protein was further purified by size-exclusion chromatography using a Superdex™ 75 column. The final protein was concentrated using ultrafiltration tubes at a molecular weight cutoff of 10 kilodaltons and stored frozen in protein buffer (25 mM Tris pH 8.3, 150 mM NaCl).
QPCTL activity was measured in a coupled-enzyme assay using the QPCTL substrate, glutamine-7-amido-4-methylcoumarin (H-Gln-AMC, Bachem), which is converted to pyroglutamyl-AMC by QPCTL. Pyroglutamyl-AMC is then converted to the fluorescent molecule, AMC, by incubation with the human enzyme pyroglutamyl peptidase-1. […] Final concentrations of DMSO and test compounds were 2% and 30-100 μM, respectively. Following the incubation, H-Gln-AMC substrate was diluted in assay buffer and added to each well for a final concentration of 10 μM. The reaction was incubated for 60 min at 37° C., before stopping it by boiling at 100° C. for 5 minutes and cooling the plate at 4° C. for 3 minutes. […] Following incubation, the fluorescence was measured with a plate reader using excitation at 380 nm and emission at 460 nm. […] Concentration-response-curves and IC50 values (Table 17) were generated using curve fit software.
Target sequence in this assay (Q9NXS2 53-382): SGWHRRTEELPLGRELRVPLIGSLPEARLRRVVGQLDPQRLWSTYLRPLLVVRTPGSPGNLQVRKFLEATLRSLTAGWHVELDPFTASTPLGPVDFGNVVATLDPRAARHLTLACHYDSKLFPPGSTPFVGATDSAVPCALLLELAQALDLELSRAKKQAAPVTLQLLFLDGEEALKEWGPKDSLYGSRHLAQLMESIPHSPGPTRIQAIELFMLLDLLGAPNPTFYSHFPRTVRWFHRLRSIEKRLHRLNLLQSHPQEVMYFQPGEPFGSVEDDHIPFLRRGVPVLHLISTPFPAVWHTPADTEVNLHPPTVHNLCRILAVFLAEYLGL

Assay [2] has as its target QPCT (rhQPCT) (Homo sapiens (Human), UniProt Q16769). As to the kind of experiment: QPCT Enzymatic Activity Assay (coupled-enzyme fluorescent assay, H-Gln-AMC substrate). The assay is classed as biochemical. The following applies: rhQPCT 10-12 nM, 10 μM H-Gln-AMC; read-out: QPCT Inhibition IC50. Here is the method: QPCT activity was measured in a coupled-enzyme assay using the QPCT substrate, glutamine-7-amido-4-methylcoumarin (H-Gln-AMC, Bachem), which is converted to pyroglutamyl-AMC by QPCT. Pyroglutamyl-AMC is then converted to the fluorescent molecule, AMC, by incubation with the human enzyme pyroglutamyl peptidase-1 (PGPEP-1). […] Following the incubation, H-Gln-AMC substrate was diluted in assay buffer and added to each well for a final concentration of 10 μM. The reaction was incubated for 60 min at 37° C., before stopping it by boiling at 100° C. for 5 minutes and cooling the plate at 4° C. for 3 minutes. […] Following incubation, the fluorescence was measured with a plate reader using excitation at 380 nm and emission at 460 nm. […] Concentration-response-curves and IC50 values (Table 17) were generated using Collaborative Drug Discovery software.

Assay [3] has as its target T1, QPCTL. As to the kind of experiment: Inhibition of Cellular QPCTL Activity - Imaging Assay, CC2C6 anti-CD47 staining of DLD-1 cells. The assay is classed as cell-based. Particulars: 72 hours, CC2C6 anti-CD47 high-content imaging. Here is the method:
Inhibition of Cellular QPCTL Activity—Imaging Assay
The cells were incubated for 72 hours at 37° C. and 5% CO2. […] After primary antibody staining, the cells were fixed with 4% paraformaldehyde in the incubation buffer for 15 minutes at room temperature. […] Cells were analyzed on a ImageXpress Pico Automated Cell Imaging System (Molecular Devices) using 10× objective (3×3 fields).
Target sequence in this assay (Q9NXS2 whole entry, the tested form may be a part): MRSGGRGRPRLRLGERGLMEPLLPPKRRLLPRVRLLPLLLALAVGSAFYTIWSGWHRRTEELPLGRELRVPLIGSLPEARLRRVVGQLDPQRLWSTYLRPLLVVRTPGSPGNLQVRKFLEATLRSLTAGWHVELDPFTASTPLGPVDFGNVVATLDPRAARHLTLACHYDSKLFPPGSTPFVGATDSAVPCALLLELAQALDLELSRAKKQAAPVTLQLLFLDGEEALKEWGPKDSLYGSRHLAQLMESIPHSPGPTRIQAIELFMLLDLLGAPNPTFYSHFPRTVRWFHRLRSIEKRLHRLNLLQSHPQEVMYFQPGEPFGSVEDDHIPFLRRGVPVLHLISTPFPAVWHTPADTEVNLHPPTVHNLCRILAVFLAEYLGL

QPCT (rhQPCT), sequence (Q16769 29-361): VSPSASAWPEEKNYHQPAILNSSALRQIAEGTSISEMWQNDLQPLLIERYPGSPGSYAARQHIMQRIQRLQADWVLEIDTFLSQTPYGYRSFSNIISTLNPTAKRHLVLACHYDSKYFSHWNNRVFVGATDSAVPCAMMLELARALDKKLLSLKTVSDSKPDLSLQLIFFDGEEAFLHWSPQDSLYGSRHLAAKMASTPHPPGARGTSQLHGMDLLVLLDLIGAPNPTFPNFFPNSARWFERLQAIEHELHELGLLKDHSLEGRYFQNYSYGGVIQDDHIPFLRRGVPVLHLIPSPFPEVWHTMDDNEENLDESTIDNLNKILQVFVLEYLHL

In the case of `Cn1cnnc1C1CCN(c2c(-c3ccc(F)nc3)ccc(N3CC(O)C3)c2C#N)CC1` [Example 95, 3-(6-fluoropyridin-3-yl)-6-(3-hydroxyazetidin-1-yl)-2-(4-(4-methyl-4H-1,2,4-triazol-3-yl)piperidin-1-yl)benzonitrile], the IC50 in assay [1], in assay [2] and in assay [3] was less than 100 nM in each case.

With `Cc1cc(-c2ccc(OCCN(C)C)c(C#N)c2N2CCC(c3nncn3C)CC2)cnn1` [Example 62, 6-(2-(dimethylamino)ethoxy)-2-(4-(4-methyl-4H-1,2,4-triazol-3-yl)piperidin-1-yl)-3-(6-methylpyridazin-4-yl)benzonitrile], the figures for the IC50 in assay [1], in assay [2] and in assay [3] were less than 100 nM, 100 to 1000 nM and greater than 10000 nM, respectively.

Take `Cn1cnnc1C1CCN(c2c(-c3ccc(F)nc3)ccc(C3COC3)c2C#N)CC1` [Example 108, 3-(6-fluoropyridin-3-yl)-2-(4-(4-methyl-4H-1,2,4-triazol-3-yl)piperidin-1-yl)-6-(oxetan-3-yl)benzonitrile]: the IC50 in assay [1], in assay [2] and in assay [3] was less than 100 nM throughout.

Regarding `CN1CCC(Oc2ccc(-c3ccc(F)nc3)c(N3CCC(c4nncn4C)CC3)c2C#N)C1` (single isomer, unassigned) [Example 90, 3-(6-fluoropyridin-3-yl)-2-(4-(4-methyl-4H-1,2,4-triazol-3-yl)piperidin-1-yl)-6-((1-methylpyrrolidin-3-yl)oxy)benzonitrile], the concentration for half-maximal inhibition (IC50) in assay [1], in assay [2] and in assay [3] was less than 100 nM each time.

In the case of `CNCCN(C)c1ccc(-c2ccc(F)nc2)c(N2CCC(c3nncn3C)CC2)c1C#N` [Example 83, 3-(6-fluoropyridin-3-yl)-6-(methyl(2-(methylamino)ethyl)amino)-2-(4-(4-methyl-4H-1,2,4-triazol-3-yl)piperidin-1-yl)benzonitrile], the 50% inhibitory concentration (IC50) was less than 100 nM in assay [1], less than 100 nM in assay [2] and 1000 to 10000 nM in assay [3].

Regarding `Cn1cnnc1C1CCN(c2c(-c3ccc(F)nc3)ccc(-c3cnn4c3OCCC4)c2C#N)CC1` [Example 64, 6-(6,7-dihydro-5H-pyrazolo[5,1-b][1,3]oxazin-3-yl)-3-(6-fluoropyridin-3-yl)-2-(4-(4-methyl-4H-1,2,4-triazol-3-yl)piperidin-1-yl)benzonitrile], the IC50 in assay [1], in assay [2] and in assay [3] was less than 100 nM throughout.

In the case of `Cn1ccc(-c2ccc(-c3ccc(F)nc3)c(N3CCN(c4nncn4C)CC3)c2C#N)n1` [Example 122, 3-(6-fluoropyridin-3-yl)-6-(1-methyl-1H-pyrazol-3-yl)-2-(4-(4-methyl-4H-1,2,4-triazol-3-yl)piperazin-1-yl)benzonitrile], the IC50 in assay [1], in assay [2] and in assay [3] was less than 100 nM throughout.

With `COCCOc1ccc(-c2ccc(F)nc2)c(N2CCC(c3nncn3C)CC2)c1C#N` [Example 86, 3-(6-fluoropyridin-3-yl)-6-(2-methoxyethoxy)-2-(4-(4-methyl-4H-1,2,4-triazol-3-yl)piperidin-1-yl)benzonitrile], the half-inhibitory concentration (IC50) in assay [1], in assay [2] and in assay [3] was less than 100 nM in each case.

For the compound `Cn1ccc(-c2ccc(-c3ccc(F)nc3)c(N3CCC(c4nncn4C)CC3)c2C#N)n1` [Example 43, 3-(6-fluoropyridin-3-yl)-6-(1-methyl-1H-pyrazol-3-yl)-2-(4-(4-methyl-4H-1,2,4-triazol-3-yl)piperidin-1-yl)benzonitrile], the IC50 in assay [1], in assay [2] and in assay [3] was less than 100 nM throughout.

On to `Cc1cc(-c2ccc(-c3cc[nH]n3)c(C#N)c2N2CCC(c3nncn3C)CC2)cnn1` [Example 65, 2-(4-(4-methyl-4H-1,2,4-triazol-3-yl)piperidin-1-yl)-3-(6-methylpyridazin-4-yl)-6-(1H-pyrazol-3-yl)benzonitrile], for which the IC50 was less than 100 nM in assay [1], less than 100 nM in assay [2] and greater than 10000 nM in assay [3].

On to `CC(=O)c1ccc(-c2ccc(F)nc2)c(N2CCC(c3nncn3C)CC2)c1C#N` [Example 97, 6-acetyl-3-(6-fluoropyridin-3-yl)-2-(4-(4-methyl-4H-1,2,4-triazol-3-yl)piperidin-1-yl)benzonitrile], for which the IC50 in assay [1], in assay [2] and in assay [3] was less than 100 nM each time.

In the case of `Cn1cnnc1C1CCN(c2c(C#N)cccc2-c2cnc3nccn3c2)CC1` [Example 93, 3-(imidazo[1,2-a]pyrimidin-6-yl)-2-(4-(4-methyl-4H-1,2,4-triazol-3-yl)piperidin-1-yl)benzonitrile], the IC50 in assay [1] is less than 100 nM; in assay [2], less than 100 nM; in assay [3], 100 to 1000 nM.

For the compound `Cn1cnnc1C1CCN(c2c(-c3ccc(F)nc3)ccc(-c3cnn(C4CC4)c3)c2C#N)CC1` [Example 63, 6-(1-cyclopropyl-1H-pyrazol-4-yl)-3-(6-fluoropyridin-3-yl)-2-(4-(4-methyl-4H-1,2,4-triazol-3-yl)piperidin-1-yl)benzonitrile], the IC50 in assay [1], in assay [2] and in assay [3] was less than 100 nM each time.

Turning to `Cn1cnnc1C1CCN(c2c(-c3ccc(F)nc3)ccc(OC3CCOC3)c2C#N)CC1` (single isomer, unassigned) [Example 88, 3-(6-fluoropyridin-3-yl)-2-(4-(4-methyl-4H-1,2,4-triazol-3-yl)piperidin-1-yl)-6-((tetrahydrofuran-3-yl)oxy)benzonitrile], the IC50 in assay [1], in assay [2] and in assay [3] was less than 100 nM throughout.

Consider `Cc1ccc(-c2ccc(F)nc2)c(N2CCC(c3nncn3C)CC2)c1C#N` [Example 67, 3-(6-fluoropyridin-3-yl)-6-methyl-2-(4-(4-methyl-4H-1,2,4-triazol-3-yl)piperidin-1-yl)benzonitrile], for which the IC50 in assay [1], in assay [2] and in assay [3] was less than 100 nM each time.

As to `Cn1cnnc1C1CCN(c2c(-c3ccc(F)nc3)ccc(OCC3CC3)c2C#N)CC1` [Example 77, 6-(cyclopropylmethoxy)-3-(6-fluoropyridin-3-yl)-2-(4-(4-methyl-4H-1,2,4-triazol-3-yl)piperidin-1-yl)benzonitrile], the IC50 in assay [1], in assay [2] and in assay [3] was less than 100 nM throughout.

Regarding `Cc1cc(-c2cccc(C#N)c2N2CCC(c3nncn3C)CC2)cnn1` [Example 46, 2-(4-(4-methyl-4H-1,2,4-triazol-3-yl)piperidin-1-yl)-3-(6-methylpyridazin-4-yl)benzonitrile], the figures for the IC50 in assay [1], in assay [2] and in assay [3] were less than 100 nM, less than 100 nM and 100 to 1000 nM, respectively.

Consider `Cn1cnnc1C1CCN(c2c(C#N)cccc2-c2cccc(C=O)c2)CC1` [Example 110, 3′-formyl-2-(4-(4-methyl-4H-1,2,4-triazol-3-yl)piperidin-1-yl)-[1,1′-biphenyl]-3-carbonitrile], for which the IC50 is 100 to 1000 nM in assay [1] and less than 100 nM in assay [2].

For the compound `Cn1cnnc1C1CCN(c2c(C#N)cccc2-c2ccc(F)cc2F)CC1` [Example 103, 2′,4′-difluoro-2-(4-(4-methyl-4H-1,2,4-triazol-3-yl)piperidin-1-yl)-[1,1′-biphenyl]-3-carbonitrile], the IC50 was 100 to 1000 nM in assay [1] and less than 100 nM in assay [2].

As to “6′-fluoro-3-(4-(1-methyl-1H-imidazol-5-yl)piperidin-1-yl)-[2,3′-bipyridine]-4-carbonitrile [Example 134]”, the IC50 in assay [1] and in assay [2] was less than 100 nM each time.

For the compound `COc1ccncc1-c1cccc(C#N)c1N1CCC(c2cncs2)CC1` [Example 14, 3-(4-methoxypyridin-3-yl)-2-[4-(1,3-thiazol-5-yl)piperidin-1-yl]benzonitrile], the IC50 in assay [1] and in assay [2] was 100 to 1000 nM in each case.

Broadly, the IC50 is the concentration needed to halve the response being measured.
